Reference: US20050034187A1, “Modified tet-inducible system for regulation of gene expression in plants” (priority 2000, published 2005)

Columns and labels:
[1] = system: tet-inducible luciferase cassettes with (OCS)3MAS/nTR; experiment: Leaf disk induction assay, luciferase; assay type: cell-based, tobacco; conditions: for maximum magnitude of induction (luciferase): FIGS. 14 and 15; for highest induction in some lines (luciferase) / average induction of the reporter (luciferase): doxycycline 5 mg/l
Protocol: FIG. 9—Doxycycline-Mediated Induction of Expression of Luciferase from (OCS)3triplexmin Promoter in Plants is Stronger than TripleX. This experiment was performed in order to test the performance of OCS elements-modified TripleX promoter on the whole plant level. Transgenic tobacco plants carrying (OCS)3MAS/nTR, NPTII, and either of (OCS)3TripleXmin/LUC or TripleX/LUC cassettes were tested in leaf disk induction assays: 5-10 mm leaf disks were excised from plants and put into six- or twelve-well plates with liquid MS medium and with or without Doxy 5 mg/l at 5 mg/l. Luciferase assays were performed with the tissues 5 days later. Each bar represents one sample; numbers above the bars represent magnitude of induction.
FIG. 10—Doxycycline-Mediated Induction of Expression of Luci erase from (OCS)3triplexmin Promoter in Plants is Stronger than TripleX. […] 5-10 mm leaf disks and pieces of roots were excised from plants and put into six- or twelve-well plates with liquid MS medium and with or without Doxy 5 mg/l at 5 mg/l. Luciferase assays were performed with the tissues 5 days later. Each bar represents an average of three samples; numbers above the bars represent magnitude of induction.
FIG. 13—Doxycycline-Mediated Induction of Expression of Luciferase in Inducible Cassettes With or Without One or More MAR Elements. This experiment was performed in order to test the effect of placing inducible luciferase gene between one or more MAR elements. Tobacco plants carrying TripleX/LUC cassette placed between one or more MAR elements, (OCS)3MAS/nTR and NPTII genes (pACAG073 and pACAG081) as well as the reference cassette without one or more MAR elements (pACAG085) were used as donors of 5-10 mm leaf disks which were cultivated in six- or twelve-well plates with liquid MS medium with or without doxycycline 5 mg/l for five days. Samples were assayed for luciferase activity. Each bar represents one sample; numbers above the bars represent magnitude of induction.
FIG. 14—Doxycycline-Mediated Induction of Luciferase in Leaves Carrying Inducible Cassettes With or Without One or More MAR Elements. This experiment was performed in order to test the effect of placing inducible luciferase gene between one or more MAR elements. […] 5-10 mm leaf disks and pieces of roots were excised from plants and put into six- or twelve-well plates with liquid MS medium and with or without Doxy 5 mg/l at 5 mg/l. Luciferase assays were performed with the tissues 5 days later. Each bar represents an average of three samples; numbers above the bars represent magnitude of induction.
Evaluation of tet inducible system in plant tissues. 5-10 mm leaf disks were excised from plants and put into six- or twelve-well plates with liquid MS medium and with or without a tet analog at 5 mg/l. When transgenic plants carried cassettes for induction of herbicide resistance, the medium was supplemented with PURSUIT® at concentration of 1 μM or higher. These plates were cultivated in dark on shaker at 90 rpm for 5 days (three weeks for analysis of induction of herbicide resistance) and then used in assays or evaluated visually. Another test was designed for evaluation of inducible herbicide resistance. In this test leaf disks were placed on MS agar supplemented with. 1 mg/l of BAP and PURSUIT® at concentration of 1 μM or higher either alone or with a tet analog at 5 mg/l. Three weeks later the induction of regeneration from these disks was evaluated.

[2] = system: wild type tet Receptor and TripleX-driven GUS gene (pAC489/pAC499 double transformants); experiment: Seed germination test: induction of GUS gene in seedlings; assay type: in vivo, tobacco; conditions: concentration curve, FIG. 19

**Q.** With C[C@H]1c2cccc(O)c2C(=O)C2=C(O)[C@]3(O)C(=O)C(C(N)=O)=C(O)[C@@H](N(C)C)[C@@H]3[C@@H](O)[C@@H]21 [doxycycline] as the compound, how does the “maximum magnitude of induction (luciferase)” value ([1]; cassettes carrying at least one MAR element, Doxy 5 mg/l) read?
**A.** The value was 50 fold.

**Q.** And the “maximum magnitude of induction (luciferase)” value ([1]; cassettes without MAR element, Doxy 5 mg/l)?
**A.** The value was 80 fold.

**Q.** What about the “maximum induction (luciferase)” value ([1]; pACAG085 (TripleX/LUC), Doxy 5 mg/l, leaf disks, FIG. 10) of the same compound?
**A.** The value was 83 fold.

**Q.** What about the “highest induction in some lines (luciferase)” value ([1]; pACAG113 and pACAG085 plants, FIG. 9) of the same compound?
**A.** The value was 100 fold.

**Q.** And the “average induction of the reporter (luciferase)” value ([1]; pACAG113 and pACAG085 plants, leaf disks, FIG. 9)?
**A.** The value was 30 to 40 fold.

**Q.** What about the “magnitude of induction for several lines (luciferase)” value ([1]; pACAG113 cassette ((OCS)3TripleXmin/LUC), Doxy 5 mg/l, leaf disks, FIG. 10) of the same compound?
**A.** The value was “higher than 100 fold”.

**Q.** What about the “average induction of the reporter (luciferase)” value ([1]; the other three cassettes with or without MAR, FIG. 13) of the same compound?
**A.** Its value is 30 to 40 fold.

**Q.** What about the “highest induction in some lines (luciferase)” value ([1]; the other three cassettes, FIG. 13) of the same compound?
**A.** Its value is 100 fold.

**Q.** And the “threshold concentration at which noticeable induction occurred” value [2]?
**A.** The value was 0.1 mg/L.
